Where a SMILES comes first, the peptide text is derived from it.

For data set [1] the following is noted: derived from FDA website; cited from earlier work.
Data set [2] can be described thus: Lowest ethanol concentration to solubilise Advantame, storage and observation for precipitation (ET03/015). It is filed as physicochemical. As to conditions: Advantame 0.0025% w/v in sesame oil formulation. The method, then:
An experiment (ET03/015) was carried out to determine the lowest ethanol concentration required to solubilise Advantame. Table 3 details the batches made with various ethanol concentrations ranging from 0.5% to 3.0% v/v.
These batches were stored at 25° C./60% RH and 40° C./75% RH for up to 4 weeks and observed for any signs of precipitation. There was no precipitation observed over the period assessed. Therefore it was concluded that Advantame can be used as a sweetener and can be solubilised at ethanol concentration of at least as low as 0.5% v/v. i.e. the concentration of ethanol required in the formulation can be reduced by a factor of 20 compared to a sucralose containing formulation.

Data set [3] can be described thus: Physical stability of Neotame formulations, open bottles standing 2 weeks. The data set is classed as physicochemical. The method, then: The 25 mg/ml and 100 mg/ml batches were tested for physical stability by opening the bottles and allowing them to stand for 2 weeks to let the ethanol evaporate. This was done as a worst case in-use scenario where the bottle is repeatedly opened and closed multiple times during use. The batches were monitored for any signs of precipitation and the ethanol content measured.

Data set [4] in a line: Miscibility of alternative solvents with sesame oil. It is filed as physicochemical. The conditions noted are these: range of concentrations (0.5-10%) tested.

Regarding `COC(=O)[C@H](Cc1ccccc1)NC(=O)[C@H](CC(=O)O)NCCCc1ccc(OC)c(O)c1` [Advantame, N—[N-3-(3-hydroxy-4-methoxyphenyl)propyl-α-L-aspartyl]-L-phenylalanine 1-methyl ester], the “Acceptable Daily Intake” value in data set [1] is recorded as 32.8 mg/kg/day. For the same compound, the “ethanol concentration at which the sweetener can be solubilised” value in data set [2] was ≤ 0.5 % v/v.
For `COC(=O)[C@H](Cc1ccccc1)NC(=O)[C@@H](N)CC(=O)O` [Aspartame] (H-Asp-Phe-OMe), the “Acceptable Daily Intake” value in data set [1] is 50 mg/kg/day.
Turning to `COC(=O)[C@H](Cc1ccccc1)NC(=O)[C@H](CC(=O)O)NCCC(C)(C)C` [Neotame, N—[N-(3,3-dimethylbutyl)-L-α-aspartyl]-L-phenylalanine 1-methyl ester], in data set [1], the “Acceptable Daily Intake” value is 0.3 mg/kg/day. In addition, in data set [3] (in ethanol), the “concentration at which Neotame can be physically solubilised” value was “up to 0.01 % w/v”. Further, the solubility in ethanol entry in data set [3] (room temperature) is given as “freely soluble”.
As to `O.O.O=C1NS(=O)(=O)c2ccccc21` [Saccharin Dihydrate], the “Acceptable Daily Intake” value in data set [1] is 15 mg/kg/day.
For the compound `O=C1NS(=O)(=O)c2ccccc21` [Saccharin], the “Acceptable Daily Intake” value in data set [1] is 15 mg/kg/day.
On to `OC[C@H]1O[C@H](O[C@]2(CCl)O[C@H](CCl)[C@@H](O)[C@@H]2O)[C@H](O)[C@@H](O)[C@H]1Cl` [Sucralose, reference compound], for which the “Acceptable Daily Intake” value in data set [1] is on record as 5 mg/kg/day.
As for `OCC(O)CO` [glycerin], in data set [4], the “miscibility with sesame oil” value is listed as “not satisfactory”.
`CC(O)CO` (centres unmarked) [propylene glycol]: the “miscibility with sesame oil” value in data set [4] is given as “not satisfactory”.

Source of the values: patent US12213985B2, “Oral cannabinoid formulations” (Jazz Pharmaceuticals Research UK Limited, priority 2016, dated 2025).
